The target of experiment [1] is CDK7/Cyclin H/MAT1 complex (Homo sapiens, UniProt P50613). Kind of experiment: CDK7 inhibition assay (Caliper/LabChip EZ Reader kinase assay). Format: biochemical. The note with it: Table 1; CDK7/Cyclin H/MAT1 6 nM, ATP 2 mM, 35 min at 27° C. As to the method:
(§1) Compounds of the invention were assayed for inhibition of CDK7, CDK9, CDK12, and CDK2 activity at Biortus Biosciences (Jiangyin, Jiangsu Province, P.R. of China) using kinase assays for each CDK developed with a Caliper/LabChip EZ Reader (Perkin Elmer, Waltham, MA).
(§2) Furthermore, the CDK9 inhibition assay used CDK9/Cyclin T1 complex (8 nM) and “5-FAM-CDK9tide” peptide substrate (2 μM, synthesized fluorophore-labeled peptide with the following sequence: 5-FAM-GSRTPMY-NH2 where 5-FAM is defined above and NH2 signifies a C-terminal amide) with 10 mM MgCl2 in the buffer composition listed above. […] Additionally, the CDK2 inhibition assay used CDK2/Cyclin E1 complex (0.5 nM) and “5-FAM-CDK7tide” ([…]) as defined above, with 2 mM MgCl2 in the buffer composition listed above.

In the next experiment the target is CDK9/Cyclin T1 complex (Homo sapiens, UniProt P50750). Kind of experiment: CDK9 inhibition assay (Caliper/LabChip EZ Reader kinase assay). The format is biochemical. The note with it: Table 1; CDK9/Cyclin T1 8 nM, ATP 2 mM, 15 min at 27° C. The method, then:
as §1, §2

For the next experiment, the target named is CDK2/Cyclin E1 complex (Homo sapiens, UniProt P24941). Kind of experiment: CDK2 inhibition assay (Caliper/LabChip EZ Reader kinase assay). Format: biochemical. To be noted: Table 1; CDK2/Cyclin E1 0.5 nM, ATP 2 mM, 35 min at 27° C. As to the method: as §1, §2
The target in experiment [2] is T1, CDK12 (aa686-1082)/Cyclin K complex (Homo sapiens, UniProt Q9NYV4).
T1 construct: CDK12 (aa686-1082)/Cyclin K complex
Nature of the experiment: CDK12 inhibition assay (Caliper/LabChip EZ Reader kinase assay). The format is biochemical. The note with it: Table 1; CDK12 (aa686-1082)/Cyclin K 50 nM, ATP 2 mM, 3 hr at 27° C. The method, then:
as §1, §2

The test system of another experiment is A673 cells. Nature of the experiment: Inhibition of proliferation of A673 cells (CyQUANT, 72 hour). The note with it: A673 cells, 72 hour, CyQUANT, read-out: Inhibition of Proliferation of A673 Cells (calculated IC50). The format is cell-based, human. As to the method: A673 cells are a cell line derived from human […] Ewing's sarcoma. Representative compounds of the invention were tested at different concentrations (from […]; 0.5 log serial dilutions) for their ability to inhibit the proliferation of A673 cells. Known CDK inhibitors dinaciclib or N-((1S,3R)-3-((5-chloro-4-(1H-indol-3-yl)pyrimidin-2-yl)amino)cyclohexyl)-5-((E)-4-(dimethylamino)but-2-enamido)picolinamide and triptolide were used as positive controls. Cells were grown in Dulbecco's Modified Eagle's Medium, +10% FBS+1 mM Sodium Pyruvate. The cells were cultured at 37° C. in a humidified chamber in the presence of 5% CO2. Proliferation assays were conducted over a 72 hour time period. CyQUANT® (Life Technologies, Chicago, IL USA) was used to assess the anti-proliferative effects of the compounds following manufacturer's directions and utilizing the reagents supplied with the CyQUANT® kit.

Where two headings read alike, the source gives them in different places.

Chain of CDK7/Cyclin H/MAT1 complex (P50613 whole entry, species assumed): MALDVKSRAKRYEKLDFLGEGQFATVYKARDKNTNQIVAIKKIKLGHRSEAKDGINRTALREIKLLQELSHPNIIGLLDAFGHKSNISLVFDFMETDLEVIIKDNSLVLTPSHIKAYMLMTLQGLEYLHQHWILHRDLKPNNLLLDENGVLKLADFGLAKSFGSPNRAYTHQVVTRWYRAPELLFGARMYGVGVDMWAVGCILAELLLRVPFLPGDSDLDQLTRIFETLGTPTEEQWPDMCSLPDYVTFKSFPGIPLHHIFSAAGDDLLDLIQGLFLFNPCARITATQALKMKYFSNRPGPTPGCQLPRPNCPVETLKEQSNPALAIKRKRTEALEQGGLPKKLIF
Chain of CDK7/Cyclin H/MAT1 complex (P51946 whole entry partner, species assumed): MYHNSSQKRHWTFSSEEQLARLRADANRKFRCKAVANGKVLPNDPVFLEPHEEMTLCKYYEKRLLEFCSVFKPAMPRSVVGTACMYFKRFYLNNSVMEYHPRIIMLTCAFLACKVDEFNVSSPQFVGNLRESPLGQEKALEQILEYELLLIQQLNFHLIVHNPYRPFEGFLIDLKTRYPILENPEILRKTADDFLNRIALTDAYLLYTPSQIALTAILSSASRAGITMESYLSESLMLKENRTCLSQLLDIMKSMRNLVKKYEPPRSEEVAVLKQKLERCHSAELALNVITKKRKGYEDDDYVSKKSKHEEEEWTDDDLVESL
Chain of CDK7/Cyclin H/MAT1 complex (P51948 whole entry partner, species assumed): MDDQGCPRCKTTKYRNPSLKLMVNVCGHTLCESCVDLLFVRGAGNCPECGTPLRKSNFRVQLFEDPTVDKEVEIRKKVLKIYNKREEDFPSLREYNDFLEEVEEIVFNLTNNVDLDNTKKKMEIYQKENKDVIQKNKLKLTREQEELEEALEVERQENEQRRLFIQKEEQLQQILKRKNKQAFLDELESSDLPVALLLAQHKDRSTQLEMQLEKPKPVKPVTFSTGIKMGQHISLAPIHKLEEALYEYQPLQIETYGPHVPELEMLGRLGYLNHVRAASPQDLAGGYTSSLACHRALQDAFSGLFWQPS
T1 sequence (Q9NYV4 686-1082, species assumed): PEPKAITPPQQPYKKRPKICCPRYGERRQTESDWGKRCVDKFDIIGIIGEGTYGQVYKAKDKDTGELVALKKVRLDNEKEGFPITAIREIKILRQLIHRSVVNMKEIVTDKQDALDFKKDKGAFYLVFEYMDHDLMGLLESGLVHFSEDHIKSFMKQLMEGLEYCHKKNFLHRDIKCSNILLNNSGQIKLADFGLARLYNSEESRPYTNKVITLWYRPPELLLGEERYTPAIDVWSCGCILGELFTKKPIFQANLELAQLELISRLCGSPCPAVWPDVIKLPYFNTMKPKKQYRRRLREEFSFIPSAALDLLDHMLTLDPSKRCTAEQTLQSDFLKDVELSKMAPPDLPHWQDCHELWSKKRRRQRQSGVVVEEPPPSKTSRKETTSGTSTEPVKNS
T1 sequence (O75909 whole entry partner, species assumed, the tested form may be a part): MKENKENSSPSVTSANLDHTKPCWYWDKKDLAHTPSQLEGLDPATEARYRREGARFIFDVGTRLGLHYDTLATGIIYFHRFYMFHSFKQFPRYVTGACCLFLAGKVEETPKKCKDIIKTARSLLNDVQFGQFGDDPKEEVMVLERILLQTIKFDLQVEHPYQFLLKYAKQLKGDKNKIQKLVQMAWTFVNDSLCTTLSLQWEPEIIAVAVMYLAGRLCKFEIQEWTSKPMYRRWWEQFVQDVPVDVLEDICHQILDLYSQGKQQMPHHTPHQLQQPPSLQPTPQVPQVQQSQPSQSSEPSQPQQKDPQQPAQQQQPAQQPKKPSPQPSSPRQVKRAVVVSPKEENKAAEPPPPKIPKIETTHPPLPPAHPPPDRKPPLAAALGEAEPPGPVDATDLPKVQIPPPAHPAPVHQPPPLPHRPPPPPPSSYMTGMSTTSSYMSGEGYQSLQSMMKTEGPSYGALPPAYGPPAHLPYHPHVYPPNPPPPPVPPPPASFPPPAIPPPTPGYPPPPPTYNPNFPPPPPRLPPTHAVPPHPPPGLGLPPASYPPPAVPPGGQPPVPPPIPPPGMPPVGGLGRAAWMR
Chain of CDK9/Cyclin T1 complex (P50750 whole entry, species assumed): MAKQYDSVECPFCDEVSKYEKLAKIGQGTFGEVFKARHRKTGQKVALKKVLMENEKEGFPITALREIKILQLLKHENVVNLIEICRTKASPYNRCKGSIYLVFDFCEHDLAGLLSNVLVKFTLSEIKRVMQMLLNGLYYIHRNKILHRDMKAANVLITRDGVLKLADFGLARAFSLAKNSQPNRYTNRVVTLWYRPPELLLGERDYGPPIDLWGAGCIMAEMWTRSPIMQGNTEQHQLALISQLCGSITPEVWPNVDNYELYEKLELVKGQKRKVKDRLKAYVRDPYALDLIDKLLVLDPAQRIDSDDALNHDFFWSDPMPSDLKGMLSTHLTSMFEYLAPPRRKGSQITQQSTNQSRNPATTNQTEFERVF
Chain of CDK9/Cyclin T1 complex (O60563 whole entry partner, species assumed): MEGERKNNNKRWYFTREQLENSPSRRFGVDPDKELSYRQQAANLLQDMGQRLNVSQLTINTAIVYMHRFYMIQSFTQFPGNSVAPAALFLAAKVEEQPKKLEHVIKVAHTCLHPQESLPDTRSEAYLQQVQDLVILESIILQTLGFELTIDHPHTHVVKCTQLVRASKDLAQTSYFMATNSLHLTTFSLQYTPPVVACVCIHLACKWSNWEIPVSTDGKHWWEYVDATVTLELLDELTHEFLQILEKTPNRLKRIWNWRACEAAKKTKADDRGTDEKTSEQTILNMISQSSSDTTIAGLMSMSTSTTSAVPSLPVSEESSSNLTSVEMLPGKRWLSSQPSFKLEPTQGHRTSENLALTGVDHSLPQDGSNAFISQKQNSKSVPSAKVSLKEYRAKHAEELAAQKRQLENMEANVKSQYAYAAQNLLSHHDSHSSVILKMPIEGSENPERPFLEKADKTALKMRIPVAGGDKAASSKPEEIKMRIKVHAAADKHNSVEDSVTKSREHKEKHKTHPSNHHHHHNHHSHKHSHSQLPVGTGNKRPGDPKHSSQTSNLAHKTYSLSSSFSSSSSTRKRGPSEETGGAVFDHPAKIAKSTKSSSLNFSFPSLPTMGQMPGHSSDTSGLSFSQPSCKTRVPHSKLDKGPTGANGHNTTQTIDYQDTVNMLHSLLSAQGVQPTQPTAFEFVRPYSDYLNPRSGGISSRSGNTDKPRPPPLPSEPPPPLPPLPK

`CC(O)c1cnc(NC2CCCNC2)nc1-c1c[nH]c2ccccc12` (single isomer, unassigned) [Compound 238]: the IC50 was 0.2 to 5 µM in experiment [1]; over 5 µM on CDK9/Cyclin T1 complex; over 5 µM against CDK2/Cyclin E1 complex; over 5 µM in experiment [2]; 0.2 to 5 µM in the experiment with A673 cells (Homo sapiens, A673, 72 h).
`CC(O)c1cnc(NC2CCCNC2)nc1-c1c[nH]c2ccccc12` (single isomer, unassigned) [Compound 239]: the IC50 in experiment [1] was 0.2 to 5 µM; against CDK9/Cyclin T1 complex it was over 5 µM; on CDK2/Cyclin E1 complex, over 5 µM; in experiment [2], over 5 µM; in the experiment with A673 cells, 0.2 to 5 µM.
As to `CNC(=O)C1CNCC(Nc2ncc(C(F)(F)F)c(-c3c[nH]c4ccccc34)n2)C1` (single isomer, unassigned) [Compound 252], the IC50 in experiment [1] was 0.02 to 0.2 µM; against CDK9/Cyclin T1 complex it was over 5 µM; at CDK2/Cyclin E1 complex, 0.2 to 5 µM; in experiment [2], over 5 µM; with A673 cells it was 0.2 to 5 µM.
Consider `CNC(=O)C1CNCC(Nc2ncc(C(F)(F)F)c(-c3c[nH]c4ccccc34)n2)C1` (single isomer, unassigned) [Compound 253], for which the IC50 in experiment [1] was under 0.02 µM; against CDK9/Cyclin T1 complex, 0.2 to 5 µM; against CDK2/Cyclin E1 complex, 0.02 to 0.2 µM; in experiment [2], 0.02 to 0.2 µM; in the experiment on A673 cells, 0.02 to 0.2 µM.
For `CCC(=O)N[C@@H]1CNC[C@H](Nc2ncc(C(F)(F)F)c(-c3c[nH]c4c(S(C)(=O)=O)cccc34)n2)C1` (single isomer, unassigned) [Compound 259], the IC50 in experiment [1] is under 0.02 µM; against CDK9/Cyclin T1 complex, 0.2 to 5 µM; on CDK2/Cyclin E1 complex it was 0.2 to 5 µM; in experiment [2] it was 0.2 to 5 µM; in the experiment on A673 cells (Homo sapiens, A673, 72 h), 0.02 to 0.2 µM.
Turning to `Brc1cnc(NC2CCCNC2)nc1-c1c[nH]c2ccccc12` (stereo in doubt) [Compound 133], the IC50 was under 0.02 µM in experiment [1]; 0.2 to 5 µM against CDK9/Cyclin T1 complex; 0.02 to 0.2 µM against CDK2/Cyclin E1 complex; 0.02 to 0.2 µM in experiment [2]; under 0.02 µM in the experiment on A673 cells (Homo sapiens, A673, 72 h).
With `Fc1cc2[nH]cc(-c3nc(N[C@H]4CCCNC4)ncc3Cl)c2cc1F` [Compound 111], the IC50 in experiment [1] is under 0.02 µM; on CDK9/Cyclin T1 complex, 0.02 to 0.2 µM; against CDK2/Cyclin E1 complex, 0.2 to 5 µM; in experiment [2] it was 0.02 to 0.2 µM; with A673 cells (Homo sapiens, A673, 72 h), 0.02 to 0.2 µM.
`Clc1cnc(N[C@@H]2CN3CCC2CC3)nc1-c1c[nH]c2ccccc12` [Compound 131, (S)—N-(5-chloro-4-(1H-indol-3-yl)pyrimidin-2-yl)quinuclidin-3-amine]: the IC50 in experiment [1] was over 5 µM; against CDK9/Cyclin T1 complex, over 5 µM; against CDK2/Cyclin E1 complex it was over 5 µM; in experiment [2] it was over 5 µM; with A673 cells (Homo sapiens, A673, 72 h), 0.2 to 5 µM.
As for `Clc1cnc(N[C@H]2CN3CCC2CC3)nc1-c1c[nH]c2ccccc12` [Compound 134], the IC50 in experiment [1] is over 5 µM; against CDK9/Cyclin T1 complex, over 5 µM; against CDK2/Cyclin E1 complex, over 5 µM; in experiment [2] it was over 5 µM; in the experiment on A673 cells it was 0.2 to 5 µM.
On to `c1ccc2c(-c3nc(N[C@H]4CCCNC4)ncc3C3CC3)c[nH]c2c1` [Compound 135], for which the IC50 in experiment [1] was 0.02 to 0.2 µM; against CDK9/Cyclin T1 complex it was over 5 µM; against CDK2/Cyclin E1 complex, over 5 µM; in experiment [2] it was over 5 µM; with A673 cells (Homo sapiens, A673, 72 h) it was 0.2 to 5 µM.
As for `CN1CCC[C@H](Nc2ncc(Cl)c(-c3c[nH]c4ccccc34)n2)C1` [Compound 136], the IC50 in experiment [1] is under 0.02 µM; against CDK9/Cyclin T1 complex it was 0.2 to 5 µM; against CDK2/Cyclin E1 complex, 0.2 to 5 µM; in experiment [2] it was 0.2 to 5 µM; with A673 cells (Homo sapiens, A673, 72 h) it was 0.02 to 0.2 µM.
`CCc1cnc(N[C@H]2CCCNC2)nc1-c1n[nH]c2c(F)cccc12` [Compound 143, (S)-5-ethyl-4-(7-fluoro-1H-indazol-3-yl)-N-(piperidin-3-yl)pyrimidin-2-amine]: the IC50 is under 0.02 µM in experiment [1]; 0.2 to 5 µM at CDK9/Cyclin T1 complex; 0.2 to 5 µM against CDK2/Cyclin E1 complex; 0.2 to 5 µM in experiment [2]; under 0.02 µM with A673 cells (Homo sapiens, A673, 72 h).
As for `CC(C)CN1CCC[C@H](Nc2ncc(Cl)c(-c3c[nH]c4ccccc34)n2)C1` [Compound 145], the IC50 is 0.02 to 0.2 µM in experiment [1]; over 5 µM against CDK9/Cyclin T1 complex; over 5 µM against CDK2/Cyclin E1 complex; 0.2 to 5 µM in experiment [2]; 0.2 to 5 µM with A673 cells (Homo sapiens, A673, 72 h).
Turning to `Ic1cnc(N[C@H]2CCCNC2)nc1-c1c[nH]c2ccccc12` [Compound 147], the IC50 in experiment [1] is under 0.02 µM; at CDK9/Cyclin T1 complex, 0.2 to 5 µM; at CDK2/Cyclin E1 complex, 0.02 to 0.2 µM; in experiment [2], 0.2 to 5 µM; with A673 cells it was under 0.02 µM.
Take `CC(C)N1CCC[C@H](Nc2ncc(Cl)c(-c3c[nH]c4ccccc34)n2)C1` [Compound 148]: the IC50 in experiment [1] was 0.02 to 0.2 µM; against CDK9/Cyclin T1 complex, 0.2 to 5 µM; against CDK2/Cyclin E1 complex it was over 5 µM; in experiment [2], 0.2 to 5 µM; in the experiment on A673 cells (Homo sapiens, A673, 72 h) it was 0.02 to 0.2 µM.
Consider `COCCN1CCC[C@H](Nc2ncc(Cl)c(-c3c[nH]c4ccccc34)n2)C1` [Compound 149], for which the IC50 was 0.02 to 0.2 µM in experiment [1]; 0.2 to 5 µM against CDK9/Cyclin T1 complex; 0.2 to 5 µM on CDK2/Cyclin E1 complex; 0.2 to 5 µM in experiment [2]; 0.02 to 0.2 µM with A673 cells.
`N#Cc1cnc(N[C@H]2CCCNC2)nc1-c1c[nH]c2ccccc12` [Compound 157]: the IC50 in experiment [1] is under 0.02 µM; at CDK9/Cyclin T1 complex it was 0.2 to 5 µM; against CDK2/Cyclin E1 complex, 0.2 to 5 µM; in experiment [2], 0.2 to 5 µM; in the experiment with A673 cells (Homo sapiens, A673, 72 h), under 0.02 µM.
On to `CCOP(=O)(OCC)c1cccc2c(-c3nc(N[C@H]4CCCNC4)ncc3C(F)(F)F)c[nH]c12` [Compound 168], for which the IC50 in experiment [1] was 0.2 to 5 µM; against CDK9/Cyclin T1 complex, over 5 µM; at CDK2/Cyclin E1 complex it was over 5 µM; in experiment [2], over 5 µM; with A673 cells (Homo sapiens), 0.2 to 5 µM.
For the molecule `Cc1nn(C)cc1-c1cccc2c(-c3nc(N[C@H]4CCCNC4)ncc3C(F)(F)F)c[nH]c12` [Compound 171], the IC50 in experiment [1] was under 0.02 µM; against CDK9/Cyclin T1 complex it was 0.2 to 5 µM; at CDK2/Cyclin E1 complex, 0.2 to 5 µM; in experiment [2], 0.2 to 5 µM; in the experiment with A673 cells (Homo sapiens, A673, 72 h), under 0.02 µM.
Take `Cc1cn(-c2cccc3c(-c4nc(N[C@H]5CCCNC5)ncc4C(F)(F)F)c[nH]c23)cn1` [Compound 172]: the IC50 in experiment [1] is under 0.02 µM; at CDK9/Cyclin T1 complex, 0.2 to 5 µM; at CDK2/Cyclin E1 complex, 0.2 to 5 µM; in experiment [2], 0.2 to 5 µM; in the experiment on A673 cells (Homo sapiens, A673, 72 h) it was under 0.02 µM.
For `CCOP(C)(=O)c1cccc2c(-c3nc(N[C@H]4CCCNC4)ncc3C(F)(F)F)c[nH]c12` (stereo partly shown) [Compound 179], the IC50 in experiment [1] is under 0.02 µM; on CDK9/Cyclin T1 complex it was 0.2 to 5 µM; against CDK2/Cyclin E1 complex, 0.2 to 5 µM; in experiment [2], 0.2 to 5 µM; with A673 cells (Homo sapiens), under 0.02 µM.
With `Fc1cc2[nH]cc(-c3nc(N[C@H]4CCCNC4)ncc3C(F)(F)F)c2cc1F` [Compound 184], the IC50 is under 0.02 µM in experiment [1]; 0.02 to 0.2 µM against CDK9/Cyclin T1 complex; 0.02 to 0.2 µM on CDK2/Cyclin E1 complex; 0.02 to 0.2 µM in experiment [2]; under 0.02 µM with A673 cells.
Take `COc1cnc(N[C@H]2CCCNC2)nc1-c1c[nH]c2ccccc12` [Compound 189]: the IC50 is 0.2 to 5 µM in experiment [1]; over 5 µM on CDK9/Cyclin T1 complex; over 5 µM on CDK2/Cyclin E1 complex; over 5 µM in experiment [2]; 0.2 to 5 µM in the experiment on A673 cells.
Take `CC(C)(O)CCc1cccc2c(-c3nc(N[C@H]4CCCNC4)ncc3C(F)(F)F)c[nH]c12` [Compound 191]: the IC50 was under 0.02 µM in experiment [1]; 0.2 to 5 µM at CDK9/Cyclin T1 complex; 0.2 to 5 µM at CDK2/Cyclin E1 complex; 0.2 to 5 µM in experiment [2]; under 0.02 µM with A673 cells.
`C#Cc1cnc(N[C@H]2CCCNC2)nc1-c1c[nH]c2ccccc12` [Compound 194]: the IC50 in experiment [1] is under 0.02 µM; against CDK9/Cyclin T1 complex, 0.2 to 5 µM; at CDK2/Cyclin E1 complex it was 0.2 to 5 µM; in experiment [2], 0.2 to 5 µM; with A673 cells (Homo sapiens, A673, 72 h), under 0.02 µM.
With `C#Cc1cnc(N[C@H]2CCCNC2)nc1-c1cn(C)c2ccccc12` [Compound 195], the IC50 is 0.2 to 5 µM in experiment [1]; over 5 µM against CDK9/Cyclin T1 complex; over 5 µM at CDK2/Cyclin E1 complex; over 5 µM in experiment [2]; 0.02 to 0.2 µM with A673 cells.

These data come from patent US20240360165A1, “INHIBITORS OF CYCLIN DEPENDENT KINASE 7 (CDK7)” (Syros Pharmaceuticals, Inc., priority 2016, published 2024).
